# According to patent US10543189B2, “2-acetylnaphtho[2,3-b]furan -4,9-dione for use on treating cancer” (Boston Biomedical, Inc., priority 2013, dated 2020):
# Experiment: Phase 1 extension study of higher strength capsule (DP2A): adverse events
# Type: in vivo
# Description: However, with the higher strength capsules, we observed worsening gastrointestinal adverse effects including nausea, vomiting, and diarrhea in patients.
# Additional studies were run using an oral formulation of the Compound of the Invention, specifically a higher strength capsule formulation (DP2A). As described herein, the Compound of the Invention blocks cancer stem cell (CSC) self-renewal and induces cell death in CSC as well as non-stem cancer cells by inhibiting Stat3, β-catenin, and Nanog pathways, and has shown potent anti-tumor and anti-metastatic activities pre-clinically. […] The studies described herein were designed as a phase 1 extension study to evaluate a formulation designed for pivotal trials to determine pharmacokinetics (PK) in patients with advanced cancer.
# On Day 1, patients received a single 500 mg dose of an oral administration formulation of the Compound of the Invention (DP1). On Day 4 and Day 8, a higher strength capsule designed for pivotal trials (DP2A) was given with fasting then fed conditions. DP2A was then administered daily until disease progression or unacceptable toxicity. Endpoints were safety, PK and preliminary anticancer activity.
# [1] = q 4 h dosing (N = 17), AE possibly related to BBI608
compound,measurement,setting,value
"CC(=O)c1cc2c(o1)C(=O)c1ccccc1C2=O [Compound 1, 2-acetylnaphtho[2,3-b]furan-4,9-dione]",AE summary,"Patient 0053, at 500 mg bid q4h (gastrointestinal issues)",No significant gastrointestinal
same,AE summary,"Patient 0054, at 500 mg bid q4h (gastrointestinal issues)",No significant gastrointestinal
same,AE summary,"Patient 0061, fatigue, cramping, diarrhea, and nausea starting at 500 mg bid q4h and persisting at 375 mg/250 mg/250 mg q4h","Intolerable grade 2 fatigue,"
same,"Abdominal cramps/pain, Grade 1 or 2, # Subjects",[1],13
same,"Abdominal cramps/pain, Grade 1 or 2, %",[1],76.5%
same,"Abdominal cramps/pain, Grade 3, # Subjects",[1],1
same,"Abdominal cramps/pain, Grade 3, %",[1],5.9%
same,"Anorexia, Grade 1 or 2, # Subjects",[1],10
same,"Anorexia, Grade 1 or 2, %",[1],58.8%
same,"Anorexia, Grade 3, # Subjects",[1],3
same,"Anorexia, Grade 3, %",[1],17.6%
same,"Bloated abdomen, Grade 1 or 2, # Subjects",[1],4
same,"Bloated abdomen, Grade 1 or 2, %",[1],23.5%
same,"Bloated abdomen, Grade 3, # Subjects",[1],0
same,"Bloated abdomen, Grade 3, %",[1],0.0%
same,"Dehydration, Grade 1 or 2, # Subjects",[1],1
same,"Dehydration, Grade 1 or 2, %",[1],5.9%
same,"Dehydration, Grade 3, # Subjects",[1],0
same,"Dehydration, Grade 3, %",[1],0.0%
same,"Depression, Grade 1 or 2, # Subjects",[1],0
same,"Depression, Grade 1 or 2, %",[1],0.0%
same,"Depression, Grade 3, # Subjects",[1],0
same,"Depression, Grade 3, %",[1],0.0%
same,"Diarrhea, Grade 1 or 2, # Subjects",[1],14
same,"Diarrhea, Grade 1 or 2, %",[1],82.4%
same,"Diarrhea, Grade 3, # Subjects",[1],4
same,"Diarrhea, Grade 3, %",[1],23.5%
same,"Dysgusia, Grade 1 or 2, # Subjects",[1],1
same,"Dysgusia, Grade 1 or 2, %",[1],5.9%
same,"Dysgusia, Grade 3, # Subjects",[1],0
same,"Dysgusia, Grade 3, %",[1],0.0%
same,"Fatigue/weakness, Grade 1 or 2, # Subjects",[1],10
same,"Fatigue/weakness, Grade 1 or 2, %",[1],58.8%
same,"Fatigue/weakness, Grade 3, # Subjects",[1],3
same,"Fatigue/weakness, Grade 3, %",[1],17.6%
same,"Flatulence, Grade 1 or 2, # Subjects",[1],2
same,"Flatulence, Grade 1 or 2, %",[1],11.8%
same,"Flatulence, Grade 3, # Subjects",[1],0
same,"Flatulence, Grade 3, %",[1],0.0%
same,"Nausea, Grade 1 or 2, # Subjects",[1],8
same,"Nausea, Grade 1 or 2, %",[1],47.1%
same,"Nausea, Grade 3, # Subjects",[1],1
same,"Nausea, Grade 3, %",[1],5.9%
same,"Rectal/Anal Burning, Grade 1 or 2, # Subjects",[1],3
same,"Rectal/Anal Burning, Grade 1 or 2, %",[1],17.6%
same,"Rectal/Anal Burning, Grade 3, # Subjects",[1],0
same,"Rectal/Anal Burning, Grade 3, %",[1],0.0%
same,"Reflux (also heartburn), Grade 1 or 2, # Subjects",[1],1
same,"Reflux (also heartburn), Grade 1 or 2, %",[1],5.9%
same,"Reflux (also heartburn), Grade 3, # Subjects",[1],0
same,"Reflux (also heartburn), Grade 3, %",[1],0.0%
same,"Urine Color Change, Grade 1 or 2, # Subjects",[1],2
same,"Urine Color Change, Grade 1 or 2, %",[1],11.8%
same,"Urine Color Change, Grade 3, # Subjects",[1],0
same,"Urine Color Change, Grade 3, %",[1],0.0%
same,"Vomiting, Grade 1 or 2, # Subjects",[1],7
same,"Vomiting, Grade 1 or 2, %",[1],41.2%
same,"Vomiting, Grade 3, # Subjects",[1],0
same,"Vomiting, Grade 3, %",[1],0.0%
same,"Weight loss, Grade 1 or 2, # Subjects",[1],8
same,"Weight loss, Grade 1 or 2, %",[1],47.1%
same,"Weight loss, Grade 3, # Subjects",[1],0
same,"Weight loss, Grade 3, %",[1],0.0%
same,"Xerostomia, Grade 1 or 2, # Subjects",[1],4
same,"Xerostomia, Grade 1 or 2, %",[1],23.5%
same,"Xerostomia, Grade 3, # Subjects",[1],0
same,"Xerostomia, Grade 3, %",[1],0.0%
same,"hypophosphatemia, Grade 1 or 2, # Subjects",[1],1
same,"hypophosphatemia, Grade 1 or 2, %",[1],5.9%
